Measurements: US20230057861A1, “USE OF CORYDALIS SAXICOLA BUNTING AND FORMULATION THEREOF IN PREPARATION OF DRUG FOR TREATING NON-ALCOHOLIC FATTY LIVER DISEASES” (NANJING ZHONGSHAN PHARMACEUTICAL CO., LTD., priority 2020, published 2023)

Tested on: HFD-fed mice
Assay: Liver histopathology, HE staining
Format: in vivo, C57BL/6J mice
Settings: metformin group (200 mg/kg), gavage 5 weeks, FIG. 5
Experimental: 1.4 Experimental method: After adaptive feeding for one week, 35 four-week-old male C57BL/6 mice were randomized into 2 initial groups, fed with a normal chow or a high-fat (60% fat) high-sugar (20% fructose) chow. […] During modeling, the mice were given ad libitum access to food and water at room temperature of 23-25° C. in an animal laboratory. The proper temperature and the 12-hour day-night cycle were maintained. From week 11, the mice in each group were dosed by gavage for 5 weeks, and its weight was measured once a week. 4.1.1 Experimental method: Fresh liver tissue was collected and fixed in 4% neutral formalin buffer for 24 h, and then dehydrated. The tissue blocks were trimmed, processed, and embedded in paraffin. The tissue in glass slides were cut to the thickness of 5 μm and treated with HE staining.

SMILES: CN(C)C(=N)N=C(N)N [metformin]
- hepatocyte swelling, steatosis, sparse cytoplasm (HE staining): significantly relieved
